Converted amounts (≈) assume the structure as drawn.

Holding throughout (type): functional
Experiment [1] concerns Staphylococcus. In words: Antibacterial activity against methicillin-resistant coagulase-negative Staphylococcus assessed as reduction in bacterial growth by double dilution method.
The test system of experiment [2] is Proteus sp. The experiment in a line: Antibacterial activity against Proteus species assessed as reduction in bacterial growth by double dilution method. The settings on record: Proteus sp. (in: enterobacteria).
The subject of experiment [3] is Mycolicibacterium phlei. The experiment in a line: Antibacterial activity against Mycobacterium phlei assessed as reduction in bacterial growth by double dilution method.
The test system of experiment [4] is Bacillus subtilis. The experiment in a line: Antibacterial activity against Bacillus subtilis assessed as reduction in bacterial growth by double dilution method.
Experiment [5] concerns Staphylococcus aureus. The experiment in a line: Antibacterial activity against methicillin-resistant Staphylococcus aureus assessed as reduction in bacterial growth by double dilution method.

With `Cc1cc(O)cc2cc3c(c(O)c12)C(=O)c1c(O)cc(O)cc1[C@H]3[C@H]1c2cc(O)cc(O)c2C(=O)c2c1cc1cc(O)cc(C)c1c2O`, the minimal inhibitory concentration (MIC) in experiment [1] stood at 1.9 µg/mL (≈ 2.96 µM); in experiment [2] it was 3.9 µg/mL (≈ 6.07 µM); in experiment [3], 1.9 µg/mL (≈ 2.96 µM); in experiment [4] it was 3.9 µg/mL (≈ 6.07 µM); in experiment [5] it was 1.9 µg/mL (≈ 2.96 µM).
For the compound `Cc1cc(O)cc2cc3c(c(O)c12)C(=O)c1c(O)cc(O)cc1C3C1c2cc(O)cc(O)c2C(=O)c2c1cc1cc(O)cc(C)c1c2O` (racemic), the minimum inhibitory concentration (MIC) in experiment [1] amounted to 1.9 µg/mL (≈ 2.96 µM); in experiment [2] it was 1.9 µg/mL (≈ 2.96 µM); in experiment [3], 1 µg/mL (≈ 1.56 µM); in experiment [4], 3.9 µg/mL (≈ 6.07 µM); in experiment [5], 1 µg/mL (≈ 1.56 µM).
On to `Cc1cc(O)cc2cc3c(c(O)c12)C(=O)c1c(O)cc(O)cc1C3=O` [TETRACENOMYCIN D], for which the MIC in experiment [1] is 7.7 µg/mL (≈ 22.9 µM); in experiment [2], 16 µg/mL (≈ 47.6 µM); in experiment [3], 7.7 µg/mL (≈ 22.9 µM); in experiment [4] it was 16 µg/mL (≈ 47.6 µM); in experiment [5] it was 16 µg/mL (≈ 47.6 µM).
Consider `Cc1cc(O)cc2cc3c(c(O)c12)C(=O)c1c(O)cc(O)cc1[C@H]3[C@@H]1c2cc(O)cc(O)c2C(=O)c2c1cc1cc(O)cc(C)c1c2O`, for which the minimum inhibitory concentration (MIC) in experiment [1], in experiment [2], in experiment [3], in experiment [4] and in experiment [5] was 1.9 µg/mL (≈ 2.96 µM) each time.
With `Cc1cc(O)cc2cc3c(c(O)c12)C(=O)c1c(O)cc(O)cc1[C@@H]3[C@H]1c2cc(O)cc(O)c2C(=O)c2c1cc1cc(O)cc(C)c1c2O`, the MIC is 1.9 µg/mL (≈ 2.96 µM) in experiment [1]; 3.9 µg/mL (≈ 6.07 µM) in experiment [2]; 1.9 µg/mL (≈ 2.96 µM) in experiment [3]; 3.9 µg/mL (≈ 6.07 µM) in experiment [4]; 1.9 µg/mL (≈ 2.96 µM) in experiment [5].
On to `O=C(O)c1cn(C2CC2)c2cc(N3CCNCC3)c(F)cc2c1=O` [CIPROFLOXACIN], for which the minimum inhibitory concentration (MIC) was 32.1 µg/mL (≈ 96.9 µM) in experiment [1]; less than 0.1 µg/mL in experiment [2]; 0.1 µg/mL (≈ 0.302 µM) in experiment [3]; less than 0.1 µg/mL in experiment [4]; 128 µg/mL (≈ 388 µM) in experiment [5].

Broadly, the MIC is the lowest concentration found to suppress growth.

Values taken from ChEMBL document CHEMBL5046246, “Dimeric Tetracenomycin Derivatives from a Taklamakan Desert-Derived Streptomyces sp. HDN154193” (2022).
